These results are taken from ChEMBL document CHEMBL1201862, “PubChem BioAssay data set” (2004).

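Method: 48-hour compound exposure of cells in 96-well plates, five concentrations, linear interpolation of endpoints. The concentration for 50% growth inhibition is given as GI50.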 Active and inactive are the calls of the source. Rule as the data show it: active = GI50 up to about 1.1 µM and inactive = higher.

What all share (assay): NCI tumour cell line growth inhibition, 48 h
Assay [1] has as its system SF-268.
In assay [2] the test system is SNB-19.
Assay [3] has as its system CCRF-CEM.
Assay [4] has as its system DMS-273.
The subject of assay [5] is COLO 205.
In assay [6] the test system is 786-0.
Assay [7] concerns HT-29.
In assay [8] the test system is Malme-3M.
For assay [9], the system named is SR.
For assay [10], the system named is LOX IMVI.
For assay [11], the system named is DLD-1.
In assay [12] the test system is IGROV-1.
The test system of assay [13] is DMS-114.
Assay [14] deals with SK-OV-3.
The test system of assay [15] is UO-31.
For assay [16], the system named is NCI-H226.

Consider `O=c1c2ccc3cccc4c(=O)cc(c5ccccc15)-c2c34`, for which the GI50 in [1], in assay [2], in assay [3], in assay [4], in assay [5] and in assay [6] was > 100 µM (inactive) in each case. Also, the GI50 in assay [7] was > 100 µM (inactive); in assay [8], 30.5 µM (inactive); in assay [9], > 100 µM (inactive); in assay [10], 29.2 µM (inactive); in assay [11] it was > 100 µM (inactive); in assay [12], > 100 µM (inactive). Also, the GI50 in assay [13] was 32 µM (inactive); in assay [14], > 100 µM (inactive); in assay [15] it was > 100 µM (inactive); in assay [16] it was > 100 µM (inactive).

`COc1cc(C)c2c(c1)CN1CN2Cc2cc(OC)cc(C)c21`: the GI50 is 48.1 µM (inactive) in assay [1]; < 0.01 µM (active) in [2]; 65.6 µM (inactive) in [3]; 38.2 µM (inactive) in [4]; 57 µM (inactive) in assay [5]; 74.1 µM (inactive) in assay [6]. The GI50 in [7] is 74.8 µM (inactive); in [8], 67.9 µM (inactive); in assay [9], 36.1 µM (inactive); in assay [10], 66.2 µM (inactive); in [11] it was 31.4 µM (inactive); in [12] it was 97.1 µM (inactive). Besides, the GI50 was 21.5 µM (inactive) in assay [13], > 100 µM (inactive) in [14], 33.1 µM (inactive) in assay [15] and 49.5 µM (inactive) in [16].

With `COC(=O)C1C2CC3C(OC(=O)C31)C2OC(=O)[C@](OC)(c1ccccc1)C(F)(F)F` (stereo not given in full), the GI50 in assay [1], in [2], in assay [3], in [4], in assay [5] and in assay [6] was > 100 µM (inactive) in each case. The GI50 in assay [7], in [8], in assay [9], in assay [10], in assay [11] and in [12] was > 100 µM (inactive) each time. The GI50 in assay [13], in assay [14], in assay [15] and in assay [16] was > 100 µM (inactive) in each case.

In the case of `CN/C=C(\C(=O)c1ccc(OC)c(OC)c1)c1ccc(OC)cc1`, the GI50 in assay [1] is 24.2 µM (inactive); in assay [2], 17.5 µM (inactive); in [3], 3.85 µM (inactive); in assay [4], 7.33 µM (inactive); in assay [5], 17.8 µM (inactive); in [6], 11.4 µM (inactive). Also, the GI50 in [7] is 16.3 µM (inactive); in assay [8] it was > 10 µM (inactive); in assay [9], 16.3 µM (inactive); in assay [10], 14.2 µM (inactive); in assay [11], 15.6 µM (inactive); in assay [12], 27.4 µM (inactive). Further, the GI50 in assay [13] was 18.6 µM (inactive); in [14] it was 45.9 µM (inactive); in assay [15], 12.2 µM (inactive); in assay [16], 11.3 µM (inactive).

For `N#CCc1cccc(CC#N)c1Br`, the GI50 in [1] was 86.5 µM (inactive); in assay [2] it was > 100 µM (inactive); in assay [3], > 100 µM (inactive); in assay [4] it was > 100 µM (inactive); in [5] it was > 100 µM (inactive); in [6] it was > 100 µM (inactive). Also, the GI50 in assay [7], in assay [8], in [9], in assay [10], in assay [11] and in assay [12] was > 100 µM (inactive) each time. The GI50 in assay [13], in assay [14], in assay [15] and in assay [16] was > 100 µM (inactive) throughout.
